Here are results for three compounds from patent US9018208B2, “Heterocycles as potassium channel modulators” (Icagen Inc., priority 2007, dated 2015).

The structures appear in SMILES notation. Read-outs that look alike come from different tables or passages of the source.

The ED50 is the midpoint of the dose-response relation. The term EC50 denotes the midpoint of the concentration-response curve.

The subject of data set [1] is electroshock seizure, Male Wistar rats. Nature of the data set: In vivo rat assay for anti-convulsant activity (rat MES, electroshock seizure). The conditions noted are these: for Rat MES activity: single dose screening, oral, typically 10 mg/kg, animals protected from hind limb extension; for ED50: Rattus norvegicus, po, rat MES dose-response. As for the experimental part: Male Wistar rats were housed 4 per cage on a regular light/dark cycle (lights on 0600-1800) for one week prior to anti-convulsant testing. The apparatus used to induce electroshock seizure was obtained from Walhquist Instrument Co., Salt Lake City, Utah. The shock level was set at 150 mA and the duration at 0.2 seconds. A drop of 1% proparacaine solution was placed in each eye of a rat, the electrodes were placed over the eyes, and the shock was administered. Latency to hind limb extension was measured to the nearest 0.1 second.
The KCNQ opener was homogenized in either 0.5% carboxymethylcellulose in water or 0.5% methylcellulose in water) and administered orally through a steel 18-gauge rat gavage tube in a volume of 2 mL/kg of body weight. In the single dose screening assay, latency to seizure for the vehicle group and the KCNQ opener group were compared using t-test. Typically a dose of 10 mg/kg of the opener is used. However, openers can be run n a dose-response experiment where doses of 1, 3, 10 and 30 mg/Kg are used.
In the single dose screening assay, latency to seizure for the vehicle and the 10 mg/kg groups were compared using t-test. Latencies to seizure in the dose response studies were submitted to analysis of variance and all dose groups were compared to vehicle using Dunnett's method (JMP© ver 5.1, SAS). In all cases an effect was considered significant if p≦0.05.

The subject of data set [2] is tactile allodynia following L5 nerve ligation, Male Sprague-Dawley rats. Put plainly: In vivo rat assay for neuropathic pain (L5 spinal nerve ligation, Von Frey tactile allodynia). The conditions noted are these: oral, Von Frey 50% paw withdrawal threshold after L5 ligation. The text has this:
A neuropathic pain condition is induced in rats using a nerve injury model similar to the method described by Kim and Chung (Kim, S. H. & Chung, J. M. (1992) Pain 50:355-363). Rats (Male Sprague-Dawley, Charles River, Wilmington, Mass.) weighing 200-300 grams were utilized. Food and water was available ad libitum except during testing) are anesthetized with halothane and the L5 spinal nerve is exposed, carefully isolated, and tightly ligated with 4.0 silk suture distal to the dorsal root ganglia. The wounds are sutured and the animals are allowed to recover in individual cages. To test the effect of a KCNQ opener on tactile allodynia following L5 nerve ligation, Von Frey tactile withdrawal thresholds are determined. Test animals are placed in a box separated by walls with a wire mesh floor allowing access to the plantar surface of the paw. […] Failure to lift the hind paw after 4 seconds is scored as a negative response and the next ascending hair is applied. […]
Baseline measurements of allodynia are performed immediately prior to subject selection and compound administration. […] Additional paw withdrawal thresholds are measured at various time intervals after compound administration. Examples 153 and 19 were evaluated in this assay.

For data set [3], the system named is SH-SY5Y M-currents (KCNQ2, KCNQ3 and KCNQ5). Put plainly: SH-SY5Y native cell line FLIPR assay (voltage-sensitive dye DiBAC). The data set is classed as cell-based, mouse neuroblastoma, rat glioma hybrid cell line. Conditions: SH-SY5Y native cell line, read-out: SH-SY5Y EC50. The essentials: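 Response is peak DiBAC fluorescence change, normalised to the maximum from a positive control agent, sampled every 30 s over 25 min. Before compound addition, SH-SY5Y cells differentiated with PGE1 plus isomethylbutylxanthine were dye-loaded for 1 h in EBSS with […] DiBAC.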

The subject of data set [4] is carrageenan-induced thermal hyperalgesia, Sprague Dawley rats. Put plainly: In vivo rat model for inflammatory pain (carrageenan, thermal hyperalgesia). The conditions noted are these: oral, carrageenan paw, thermal escape latency. As for the experimental part: Compounds with anti-hyperalgesic activity will increase (or lengthen) the escape latency of the inflamed paw.
To induce a local inflammation, 50 μL of a 1% solution of λ-carrageenan in sterile water is injected subcutaneously into the plantar surface of the right hind paw of the rat (Sprague Dawley rats, sample size=8 per treatment group). The KCNQ openers typically at doses ranging from 1-100 mg/kg were homogenized in either 0.5% carboxymethylcellulose in water or 0.5% methylcellulose in water and administered orally through a steel 18-gauge rat gavage tube in a volume of 2 mL/kg of body weight 30 minutes prior to carrageenan injection. After carrageenan injection behavioral testing is conducted at the appropriate time following opener or vehicle administration (generally Tmax, the time of maximum plasma levels of the compound being tested). To assess the thermally evoked paw withdrawal response, a commercially available Hargreaves Box was used (UCSD Department of Anesthesiology, San Diego; La Jolla, Calif., stimulus intensity 5.25 amps). Rats were placed on a thin glass surface in individual chambers made of clear plastic. […] The time to withdrawal response is measured in seconds and assigned as the response latency. […]
For orientation: Carrageenan injected into the paw causes an acute inflammation.

Data set [5] is described as follows: Metabolic stability in rats after oral administration (mass spectrometry). The conditions noted are these: result in words. The data set is classed as in vivo, rat. The text has this:
Metabolite 14% of parent for compound 65 and metabolite 35% of parent for compound 366 were observed.

In the case of `CC(C)(C)CC(=O)Nc1nc2ccc(C(F)(F)F)cn2c1CC(C)(C)C` [Compound 19, 3,3-dimethyl-N-(3-neopentyl-6-(trifluoromethyl)imidazo[1,2-a]pyridin-2-yl)butanamide], the “Rat MES activity” value in data set [1] is on record as “+++ (+++ 7-8 animals protected)”. Further, the median effective dose (ED50) in data set [2] came to 10 mg/kg. Also, the EC50 in data set [3] (FLIPR assay, Table 1) was less than 500 nM.
With `CC(C)(C)CC(=O)Nc1nc2ccc(F)cn2c1-c1ccc(OC(F)(F)F)cc1` [Compound 153, N-(6-fluoro-3(4-(trifluoromethoxy)phenyl)imidazo[1,2-a]pyridin-2-yl)-3,3-dimethylbutanamide], the ED50 in data set [1] is 0.5 mg/kg; in data set [4] it was 0.5 to 1 mg/kg; in data set [2], 1.9 mg/kg. Moreover, in data set [1], the “Rat MES activity” value is “+++ (+++ 7-8 animals protected)”. In addition, the half-maximal effective concentration (EC50) in data set [3] (FLIPR assay, Table 2) is less than 500 nM.
Turning to `CC(C)(CC(=O)Nc1nc2ccc(F)cn2c1-c1cc(C(F)(F)F)ccn1)C(F)(F)F` [Compound 433, 4,4,4-trifluoro-N-(6-fluoro-3-(4-(trifluoromethyl)pyridin-2-yl)imidazo[1,2-a]pyridin-2-yl)-3,3-dimethylbutanamide], it took a dose of 3.9 mg/kg to reach the 50% effect level in data set [1] (ED50). In data set [5], the metabolism in rats result is listed as “little or no metabolism”. Besides, the 50% effective concentration (EC50) in data set [3] (FLIPR assay (Table 6)) is 500 to 3000 nM.
